# Columns and labels:
# muscle stem cells [1] = assay: Engraftment of grafted muscle stem cells (satellite cells) in cardiotoxin-injured tibialis anterior of Rag-/-γC-/- mice; type: in vivo; details: 28 days post injury
# Experimental: For image analysis, ImageJ 1.46r software was using between 10 different photos randomly taken per section and 3 sections minimum per experimental group. The pictures were converted in a binary image and then the pixel values were collected. For fibre size, the sections were immunostained with rabbit anti Laminin (Sigma-Aldrich #L9393) diluted at 1/200, overnight at 4° C. Secondary Donkey ant Rabbit 488 (DL488 JacksonImmuno #711486152) were used at 1/200 45 minutes at room temperature. The fibre perimeter was done automatically by using Pixcavator® software.
# In order to investigate the potential effect of fluoxetine and vortioxetine on the muscle engraftment potential, Rag^−/−γC^−/− immunodeficient mice (Sanchez et al., 2013) were used in this study. Mice were injured with cardiotoxin in the tibialis anterior (TA) and injected with 10,000 satellite cells (SC) 24 hours after the injury. The satellite cells (SC) were obtained from Tg:Pax7nGFP::PLAP mice (Deprimo et al., 1996; Rocheteau et al., 2012), allowing the prospective isolation of a pure population of SC by FACS (Pax7 being a specific marker of SC) and the follow up (PLAP placental alkaline phosphatase being an ubiquitous marker). The TA had been sampled 28 days post engraftment and the number of PLAP fibres was counted.
# The Rag^−/−γC^−/− were treated for 6 weeks with fluoxetine per os at 18 mg/Kg at the time of the graft and the treatment continued during the regeneration process (FIG. 1a). When regeneration was completed 28 days post injury, the percentage of PLAP positive fibres was 20.5%±6.5 against 36%±6.2 in the treated animals (p=0.016; n=5, FIG. 1b-d).
# To investigate the potential effect of vortioxetine on the engraftment potential, the same approach was used. The Rag^−/−γC^−/− were treated for 12 days by intra peritoneal injections at 20 mg/Kg. Twelve days after the beginning of the treatment, the mice were injured and grafted with Pax7nGFP:PLAP SC. The treatment was continuous during the entire regenerative process (FIG. 1e). 28 days post injury the TA were sampled and stained for Laminin and PLAP. 19%±7.7 fibres were PLAP+ after placebo treatment against 36.1%±5.7 in the vortioxetine treated animals (p=0.028, n=4, FIG. 1f-h).
# bone marrow cells = assay: Engraftment of Tg:ActinGFP bone marrow cells in irradiated Rag-/-γc-/- mice, GFP+ cells by cytometry; type: in vivo
# Text: For bone marrow analysis, animals were sacrificed and bone marrow was flushed and filtered through 40 μm cell strainer. The bulk was then directly assessed using Gallios A94303 (Beckman Coulter) and analysed with Kaluza flow cytometry software.
# In order to investigate the potential effect of fluoxetine and vortioxetine on the bone marrow engraftment potential, Rag^−/−γc^−/− immunodeficient mice were used. These mice were irradiated at 95 cGy and then injected intravenously with 2 million cells taken from Tg:ActinGFP mouse (Okabe et al., 1997), to track the fate of the grafted cells.
# Rag^−/−γc^−/− mice were treated with fluoxetine per os at 18 mg/Kg for 6 weeks. […] The number of GFP+ cells were investigated after 5 weeks in the bone marrow (the treatment was never discontinued). 63.7%±6.5 of GFP+ cells were detected in the placebo mice and 80.7%±8.4 GFP+ cells in the fluoxetine treated mice (p=0.0023, n=7, FIG. 2b,c). There was thus a 25% increase in engraftment efficiency in the fluoxetine treated animals.
# To investigate the potential effect of vortioxetine on the engraftment potential, the same approach was used. The Rag^−/−γc^−/− were treated for 12 days by intra peritoneal injections at 20 mg/Kg. Twelve days after the beginning of the treatment, the mice were irradiated at 95 cGy and intravenously grafted with 2 million freshly isolated bone marrow cells from Tg:ActinGFP. 5 weeks after grafting the mice were sacrificed and bone marrow was flushed and analysed (FIG. 2d). The number of GFP+ cells was investigated after 5 weeks in the bone marrow (the treatment was never discontinued). 65.8%±5.5 cells were found in the placebo mice while 80.2%±5.8 cells were found in the vortioxetine treated animals (p=0.0079, n=5, FIG. 2e). There was thus a 21% increase in engraftment potential of bone marrow cells after vortioxetine treatment.
# To further characterise the timing of vortioxetine beneficial effects, the previous experiment was repeated without 12 days of pre-treatment (FIG. 2e,f). Rag^−/−γc^−/− were irradiated and grafted 2 hours post irradiation fresh bone marrow from Tg:ActinGFP mice. The same placebo was used displaying 65.8%±5.5 of GFP+ cells and 77.2%7.6 GFP+ cells in the vortioxetine treated animals at the time of the irradiation (p=0.04, n=5, FIG. 2e,g). A similar increase in engraftment potential (17%) was observed when animals were not pre-treated.
# muscle stem cells [2] = details: fluoxetine 18 mg/Kg for 6 weeks; after 21 days; n=8; placebo 25.7%±8.7
# Experimental: Mice were anesthetised and injured with cardiotoxin 18 hours before grafting in the tibialis anterior. Before grafting the mice were anesthetised again and grafted with 10,000 cells in 40 nl in PBS. Mice were kept for 28 days until muscle regeneration was complete. […] Mice were sacrificed 5 weeks after the injection.
# Tibialis anterior was carefully dissected and snap frozen in liquid-nitrogen-cooled isopentane for a few minutes and stored at −80° C. prior to cryosectioning (10 μm sections). Sections were kept at room temperature overnight before staining. Sections were then rehydrated in PBS for 10 minutes and fixed in 10% formalin for 3 minutes. The sections were then routinely stained with PLAP antibody manually.
# Fluoxetine treatment was provided at 18 mg/Kg for 6 weeks to Rag^−/−γc^−/− mice. The tibialis anterior (TA) was injured and 18 h post injury 10,000 satellite cells (SC) coming from Tg:Pax7nGFP:PLAP:MyHC2E3FLacZ triple transgenic mice were grafted to the Rag^−/−γc^−/− mice pre-treated with fluoxetine.
SMILES,"percentage of PLAP+ fibres (muscle stem cells [1]; vortioxetine intra peritoneal 20 mg/Kg for 12 days before graft and continued, n=4, placebo 19%±7.7)","engraftment potential of the injected SC versus placebo (muscle stem cells [1]; vortioxetine intra peritoneal 20 mg/Kg, 12 days pre-treatment)","increase in engraftment potential of bone marrow cells versus placebo (bone marrow cells; vortioxetine 20 mg/Kg, 12 days pre-treatment, 5 weeks after grafting) [%]","GFP+ cells in the bone marrow (bone marrow cells; vortioxetine intra peritoneal 20 mg/Kg for 12 days before irradiation/graft, never discontinued, 5 weeks after grafting, n=5, placebo 65.8%±5.5)","GFP+ cells in the bone marrow (bone marrow cells; vortioxetine started at the time of the irradiation, without 12 days of pre-treatment, 5 weeks after grafting, n=5, placebo 65.8%±5.5) [%]","increase in engraftment potential versus placebo (bone marrow cells; vortioxetine, animals not pre-treated) [%]","percentage of PLAP positive fibres (muscle stem cells [1]; fluoxetine per os 18 mg/Kg for 6 weeks before graft and continued, n=5, placebo 20.5%±6.5)","engraftment potential of the injected SC versus placebo (muscle stem cells [1]; fluoxetine per os 18 mg/Kg, 6 weeks pre-treatment)",percentage of fibers PLAP+ (coming from the graft) (muscle stem cells [2]),"GFP+ cells in the bone marrow (bone marrow cells; fluoxetine per os 18 mg/Kg for 6 weeks before irradiation/graft, never discontinued, 5 weeks after grafting, n=7, placebo 63.7%±6.5)","increase in engraftment efficiency versus placebo (bone marrow cells; fluoxetine per os 18 mg/Kg, 6 weeks pre-treatment, 5 weeks after grafting) [%]"
"Cc1ccc(Sc2ccccc2N2CCNCC2)c(C)c1 [vortioxetine, 1-[2-(2,4-Dimethylphenylsulfanyl)phenyl]piperazine]",36.1%±5.7,more than doubled,21,80.2%±5.8,77.2,17,,,,,
CNCCC(Oc1ccc(C(F)(F)F)cc1)c1ccccc1 (centres unmarked) [fluoxetine],,,,,,,36%±6.2,almost doubled,39%±6.6,80.7%±8.4,25
